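Step 1: Grow cells in 96-well plates. Step 2: Expose to compound for 48 hours at 5 concentrations. Step 3: Interpolate endpoints linearly; if unreached, use highest concentration. At the GI50, growth is halved.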 Calls of active or inactive are those of the source. Rule as the data show it: active = GI50 up to about 1.1 µM and inactive = higher.
Tests used:
Test in all cases: DTP human tumour cell line panel, 48 h
[1] = tested on: HCC 2998
[2] = tested on: NCI/ADR-RES
[3] = tested on: BT-549
[4] = tested on: SK-MEL-28
[5] = tested on: KM12
[6] = tested on: OVCAR-8
[7] = tested on: 786-0
[8] = tested on: NCI-H460
[9] = tested on: SF-268
[10] = tested on: ACHN
[11] = tested on: SR
[12] = tested on: COLO 205
[13] = tested on: UO-31
[14] = tested on: TK-10
[15] = tested on: SNB-19
[16] = tested on: SF-539
[17] = tested on: MCF7
[18] = tested on: SK-OV-3
[19] = tested on: RPMI-8226
[20] = tested on: SF-295

Measured: GI50

C[C@@H](c1ccccc1)n1c(N)c(-c2ccccn2)c2ccc([N+](=O)[O-])cc2c1=O
inactive: [1] > 100 µM | [2] 26.9 µM | [3] 44.1 µM | [4] > 100 µM | [5] 67.9 µM | [6] 51.2 µM | [7] > 100 µM | [8] 43.1 µM | [9] > 100 µM | [10] 56.9 µM | [11] 32.6 µM | [12] 38.2 µM | [13] 14.5 µM | [14] 31.2 µM | [15] 35.2 µM

CC(=O)/C(=C/c1ccccc1F)C(=O)c1ccccc1
inactive: [1] 16.2 µM | [2] 29.1 µM | [3] 48.2 µM | [4] 53.2 µM | [5] 30.9 µM | [6] 21.6 µM | [7] 31.7 µM | [8] 25.1 µM | [9] 33.2 µM | [10] 35.2 µM | [16] > 100 µM | [17] 37.2 µM | [18] 34.9 µM | [12] 60.5 µM | [13] 34.1 µM | [19] 18.3 µM | [14] 24.4 µM | [15] 60.7 µM | [20] 43.8 µM

Cc1ccc(Nc2cc(=O)[nH]c(=O)[nH]2)cc1CS
inactive: [1] > 100 µM | [2] > 100 µM | [3] 58.1 µM | [4] > 100 µM | [5] > 100 µM | [6] > 100 µM | [7] > 100 µM | [8] > 100 µM | [9] 61.4 µM | [10] 77.4 µM | [16] > 100 µM | [18] > 100 µM | [11] > 100 µM | [12] > 100 µM | [13] > 100 µM | [19] > 100 µM | [14] > 100 µM | [15] > 100 µM | [20] > 100 µM

COc1ccc2c(c1)/C(=C\c1c(Cl)nc3n1CCS3)C(=O)N2
inactive: [1] 2.74 µM | [2] 4.48 µM | [3] 6.76 µM | [4] 18.7 µM | [5] 2.62 µM | [6] 19.7 µM | [7] 7.83 µM | [8] 3.71 µM | [9] 13.8 µM | [10] 11 µM | [16] 4.65 µM | [17] 4.42 µM | [18] 13.1 µM | [12] 3.14 µM | [13] 5.86 µM | [19] 4.03 µM | [14] 5 µM | [15] 14.6 µM | [20] 3.72 µM

Clc1ccc2ns[s+]c2c1
inactive: [1] 17.5 µM | [3] 16.3 µM | [4] 17.7 µM | [5] 3.66 µM | [6] 20.4 µM | [7] 53.8 µM | [8] 5.83 µM | [9] 11.3 µM | [16] 3.53 µM | [17] 3.33 µM | [18] > 100 µM | [11] 1.34 µM | [12] 1.79 µM | [13] 6.44 µM | [19] 1.81 µM | [14] > 25.6 µM | [15] 29.2 µM
active: [10] 0.449 µM | [20] 0.853 µM

CC1OC(OC2C[C@](O)(C(=O)CF)Cc3c(O)c4c(c(O)c32)C(=O)c2ccccc2C4=O)CC(N)C1O (stereo partly specified)
active: [1] 0.163 µM | [3] 0.131 µM | [4] 0.177 µM | [5] 0.0305 µM | [6] 0.0115 µM | [7] < 0.01 µM | [8] < 0.01 µM | [9] 0.0255 µM | [10] < 0.01 µM | [16] 0.0561 µM | [17] < 0.01 µM | [18] 0.0194 µM | [11] < 0.01 µM | [12] 0.0296 µM | [13] 0.0392 µM | [19] < 0.01 µM | [14] 0.1 µM | [15] < 0.014 µM | [20] < 0.01 µM

C[C@]12CC[C@H]3[C@@H](CCC4=C/C(=N/OCCN5CCCCC5)CC[C@@]43C)[C@@H]1CC[C@@H]2O
inactive: [1] 14.4 µM | [2] 16.7 µM | [3] 15.4 µM | [4] 13.6 µM | [5] 10.2 µM | [6] 24.1 µM | [7] 19.3 µM | [10] 20.7 µM | [17] 12 µM | [18] 15.2 µM | [12] 16.1 µM | [13] 12.2 µM | [19] 10.7 µM | [14] 14.3 µM | [15] 5.68 µM | [20] 13.8 µM

— ChEMBL document CHEMBL1201862, “PubChem BioAssay data set” (2004)
